Structures can show the parent of a compound that is named as a salt.
Key:
[1] = system: patients with internal hemorrhoids (stages 1-3); experiment: Example 6: double-blind placebo-controlled study of 0.5% cream, intra-rectal b.i.d. for two weeks; assay type: in vivo, human
Experimental: A double-blind placebo-controlled study was conducted to assess the effects of topical iferanserin (S-MPEC) cream (0.5%), applied intra-rectally twice a day for two weeks, on bleeding and other symptoms of patients with internal hemorrhoids (stages 1-3). The primary endpoint of this trial was the change from pre-treatment in patient assessment of hemorrhoid bleeding (10-point scale where 1=no bleeding, 10=extreme bleeding) at the end of one- and two-weeks of treatment. The 0.5% dose was selected based on previous performance, such as shown in Examples 3, 4 and 5 wherein 0.5% concentration consistently performed better then 0.25% and 1% in both patient reported symptoms and in physician rated symptoms at day 7 in a patient population similar to the planned study population. Further, the 0.5% dose was the only dose to approach statistical significance in the primary endpoint (reduction in hemorrhoid size at week 4; p=0.076) (See FIG. 5) with favorable results in bleeding, itching and pain endpoints.
Subjects self-administered placebo or 0.5% iferanserin cream twice-a-day for 14 days and completed a diary evaluating their symptoms (bleeding, ease of bowel movement, pain, prolapse, fullness, throbbing, tenderness and itching) every day during the treatment period. Investigator examinations occurred on days 0 and 14 which included evaluation of hemorrhoidal size, bleeding frequency and intensity, soiling, pruritis, pain, prolapse and incontinence to gas.
One hundred and twenty-one (121) patients were treated, 61 with iferanserin and 60 with placebo. Inclusion criteria required that the main symptom was bleeding episodes of at least every other day during the last two weeks before enrollment in the study. Daily patient dairies for bleeding, itching and pain/discomfort were recorded for 14 day with assessments taken at day 7 and 14 based on a 10 point scale, wherein 1 was used for less symptoms and 10 was for extreme conditions.
In those patients who did have a recurrence of symptoms during this time period there was a significant delay (p<0.05) in the appearance of the symptoms after termination of iferanserin treatment as compared to placebo; iferanserin delayed the reappearance of symptoms by an average of 18 days, compared to 12 days with placebo, a 50% difference, as shown in FIG. 6. Thus, not only did iferanserin decrease the major symptoms of hemorrhoids during treatment but it also delayed the time for these symptoms to reappear after termination of treatment. This prolonged symptom-free period, following treatment with iferanserin, provides for less frequent hemorrhoidal episodes, or at least less frequent episodes of hemorrhoidal symptoms in patients who experience chronic hemorrhoids, thereby translating into less frequent treatment.
Hemorrhoidal symptoms can also recur while treatment is continuing. In this study, bleeding, itching and pain were analyzed for recurrence during the 14-day dosing period. […] […] For iferanserin, 89% of patients reported cessation of bleeding for at least one day, and of these only 32% reported a recurrence of bleeding.

5-HT2A receptors = 5-HT2A receptors (Homo sapiens, UniProt P28223); experiment: Receptor blockade and selectivity in all systems studied
Chain of 5-HT2A receptors (P28223 whole entry): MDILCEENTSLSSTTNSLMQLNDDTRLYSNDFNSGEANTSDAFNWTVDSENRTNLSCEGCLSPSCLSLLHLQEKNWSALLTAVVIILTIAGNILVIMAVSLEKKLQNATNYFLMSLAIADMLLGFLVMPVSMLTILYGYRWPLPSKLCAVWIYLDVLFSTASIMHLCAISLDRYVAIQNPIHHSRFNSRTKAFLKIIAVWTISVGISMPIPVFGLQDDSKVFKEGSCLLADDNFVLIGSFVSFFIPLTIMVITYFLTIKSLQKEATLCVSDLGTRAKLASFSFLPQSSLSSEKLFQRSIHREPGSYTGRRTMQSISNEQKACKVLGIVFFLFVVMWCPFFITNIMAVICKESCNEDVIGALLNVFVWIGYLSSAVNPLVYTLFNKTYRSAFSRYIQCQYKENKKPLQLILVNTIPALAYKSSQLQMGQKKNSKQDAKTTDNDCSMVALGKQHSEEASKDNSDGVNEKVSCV
Excerpt: (§1) Iferanserin is a powerful and selective 5-HT2A receptor antagonist. […] Iferanserin is particularly selective to human colonic venous 5-HT2A receptors, although there is data supporting activity at both 5-HT2B and 5-HT2C. […] Since 5-HT is released by the blood platelets in static and pooled blood, selective peripheral 5-HT2A receptor antagonists would be expected to have built-in tissue selectivity, i.e., will act only where there is vaso-constriction and platelet aggregation mediated by 5-HT. Therefore, the effects of iferanserin should be limited only to those areas where there is stasis and pooled blood caused by serotonin.

[2] = Anti-inflammatory effect (edema); conditions: reducing edema
Excerpt: (§2) The present invention comprising iferanserin, and preferably the (S) enantiomer, as the active agent, is believed to be more efficacious and/or less invasive than conventional hemorrhoid therapies.

[3] = Plasma pharmacokinetics in healthy volunteers after a single intra-rectal dose of iferanserin ointment; assay type: in vivo, human; conditions: simulation, 10 mg b.i.d. multiple dose regime, subject S-03
Local anesthetic effect = conditions: compared with lidocaine
Excerpt: as §2

human colon veins = experiment: Antagonism of constrictive effects of 5-HT on human colon veins; assay type: cell-based
Excerpt: as §1

[4] = Crossing of the blood/brain barrier in animal studies; assay type: in vivo
Excerpt: as §1

[5] = system: patients with hemorrhoids; experiment: Example 3: randomized double-blind dose study, intra-rectal b.i.d. for 2 weeks; assay type: in vivo, human
Experimental: A randomized, double-blind dose study of iferanserin (S-MPEC) was conducted using 0.25%, 0.5%, 1.0% concentrations, wherein the respective dose was applied intra-rectally twice a day (b.i.d) for 2 weeks in patients with hemorrhoids. The primary endpoint of this trial was the improvement in hemorrhoidal symptoms and objective findings including swelling and hemorrhoidal size. Secondary endpoints were subjective symptoms of bleeding, pain, anal discomfort, difficulty in defecation and prolapse rated on a visual analog scale.

[6] = system: symptomatic internal and mixed internal/external hemorrhoids; experiment: Example 4: dose study of cream b.i.d. for 14 days; assay type: in vivo, human; conditions: for hemorrhoidal swelling reduced: 14th day
Excerpt: The S isomer of MPEC in doses of 0.25%, 0.5% and 1.0% cream was used for symptomatic internal and mixed internal/external hemorrhoids and administered twice a day for 14 days. Seventy two patients were enrolled; 68 evaluable for analysis: 0.25% (23 pts), 0.5% (24 pts), 1.0% (21 pts). A graded assessment method used the following methods: if a value after treatment was smaller (−) it meant “improved,” if a value after treatment was equal (=), it meant “no change” and a value that was greater (+) after treatment it meant “deteriorated.” There was significant change in ease of defecation (week one) between dose groups; but no other symptom dose difference was detected.

human platelets = experiment: Blockade of platelet aggregation effects of 5-HT; assay type: cell-based
Excerpt: as §1

[7] = cessation = three consecutive days
[8] = cessation = three consecutive days, 31 patients questioned
[9] = cessation = three consecutive days, 56 patients questioned

CN1CCCC[C@H]1CCc1ccccc1NC(=O)/C=C/c1ccccc1 [iferanserin, S-2′-[2-(1-methyl-2-piperidyl)ethyl]cinnamanilide hydrochloride]
bleeding, patient diary 10-point scale ([1]; 0.5% cream b.i.d. 14 days): reduction in bleeding from Day 1 that continued to the end of treatment | ease of defecation ([1]; 0.5% cream b.i.d. 14 days): statistically significantly better than baseline from day three to the end of the study | itching ([1]; 0.5% cream b.i.d. 14 days): statistically significant improvement versus placebo from the fourth day of treatment | pain ([1]; 0.5% cream b.i.d. 14 days): reduced the level of pain to the almost no symptom level from the third day of treatment | serious adverse events ([1]; 0.5% cream b.i.d. 14 days): no serious adverse events reported | tenderness ([1]; 0.5% cream b.i.d. 14 days): statistically significant from the second day of treatment | difference in delay of reappearance of symptoms compared to placebo ([1]; 18 days versus 12 days): 50% | patients who stopped itching ([1]; cessation = at least one day): 90% | recurrence of itching among patients with cessation ([1]; cessation = at least one day): 25% | recurrence of pain among patients with cessation ([1]; cessation = at least one day): 33% | patients reporting cessation of bleeding ([1]; cessation = at least one day without the symptom): 89% | recurrence of bleeding among patients with cessation ([1]; cessation = at least one day, while on treatment): 32% | recurrence of bleeding among patients with cessation [1, 7]: 23% | recurrence of itching among patients with cessation [1, 7]: 16% | number of patients with no itching [1, 8]: 25 patients | patients with no itching [1, 8]: 80% | number of patients reporting stopping of bleeding [1, 9]: 46 patients | patients reporting stopping of bleeding [1, 9]: 82% | recurrence of pain among patients with cessation ([1]; cessation defined as four consecutive days (sentence says three)): 9% | patients reporting consecutive days of no pain ([1]; cessation defined as four consecutive days (sentence says three), 24 patients questioned): 61% | patients with at least one day free of pain ([1]; patients reporting with pain): 72% | average delay of reappearance of symptoms after termination of treatment ([1]; patients with recurrence within 45 days, p<0.05 versus placebo): 18 days | patients without recurrence of any of the symptoms ([1]; up to 45 days post-treatment): 61% | blockade of 5-HT2A receptors and selectivity over 5-HT-1, dopamine, adrenergic receptors (5-HT2A receptors): selectively blocked 5-HT2A receptors with little effect on 5-HT-1, dopamine or adrenergic receptors | anti-inflammatory effect [2]: exhibits an anti-inflammatory effect | projected Cmax,ss [3]: 90 ng/m | time to steady state [3]: 4 to 5 days | local anesthetic effect (Local anesthetic effect): equivalent to that of lidocaine | antagonism of constrictive effects of 5-HT (human colon veins): effectively antagonized the constrictive effects of 5-HT on human colon veins | crossing of the blood/brain barrier [4]: does not cross the blood/brain barrier (except at extremely high doses in animal studies) | improvement in bleeding, pain severity and duration, ease of defecation, swelling and size ([5]; 0.5% dose group versus 0.25 and 1% dose groups): most consistent improvement | bleeding, pain severity and duration and ease of defecation ([5]; after one day of application, 0.25%, 0.5%, 1.0% b.i.d.): Significant reductions | symptoms of hemorrhoids ([5]; following two weeks of application): virtually all the symptoms of hemorrhoids disappeared | adverse events (abdominal discomfort, diarrhea) ([5]; intra-rectal b.i.d. for 2 weeks): all of them were mild | pain, anal discomfort and pain persistence, visual analog scale (VAS) ([6]; 0.25%, 0.5%, 1.0% cream): improved with increasing dose | hemorrhoidal swelling reduced ([6]; 0.5% cream): 41% | bleeding, paired comparison of dose levels ([6]; 0.5% group, difference between dose levels p=0.016): better than the 0.25% or 1.0% groups | hemorrhoidal swelling reduced ([6]; 1.0% cream): 43% | all symptoms, patient diary review ([6]; 14 days b.i.d.): improved starting on day 1, peaked by day 7 and were maintained to day 14 | blockade of platelet aggregation effects of 5-HT (human platelets): blocked the platelet aggregation effects of 5-HT on human platelets
